# Values quoted from earlier work in US20080318919A1, “Cefquinome Compositions and Methods of Their Use” (Intervet International B.V., priority 2005, published 2008).
# Test system: Mannheimia haemolytica
# Settings: concentration that inhibits the growth of 90% of the target pathogen
smiles,measurement,value
"CO/N=C(\C(=O)N[C@@H]1C(=O)N2C(C(=O)[O-])=C(C[n+]3cccc4c3CCCC4)CS[C@H]12)c1csc(N)n1 [cefquinome, Cefquinome]",MIC90,about 0.25 μg/ml
